The test deals with T1, human BKαβ1 channels (Homo sapiens, UniProt Q12791).
T1 construct: expressed in transfected cells; host or cells: CHO cells (G418 and hygromycin selection)
T1 sequence (Q12791 whole entry): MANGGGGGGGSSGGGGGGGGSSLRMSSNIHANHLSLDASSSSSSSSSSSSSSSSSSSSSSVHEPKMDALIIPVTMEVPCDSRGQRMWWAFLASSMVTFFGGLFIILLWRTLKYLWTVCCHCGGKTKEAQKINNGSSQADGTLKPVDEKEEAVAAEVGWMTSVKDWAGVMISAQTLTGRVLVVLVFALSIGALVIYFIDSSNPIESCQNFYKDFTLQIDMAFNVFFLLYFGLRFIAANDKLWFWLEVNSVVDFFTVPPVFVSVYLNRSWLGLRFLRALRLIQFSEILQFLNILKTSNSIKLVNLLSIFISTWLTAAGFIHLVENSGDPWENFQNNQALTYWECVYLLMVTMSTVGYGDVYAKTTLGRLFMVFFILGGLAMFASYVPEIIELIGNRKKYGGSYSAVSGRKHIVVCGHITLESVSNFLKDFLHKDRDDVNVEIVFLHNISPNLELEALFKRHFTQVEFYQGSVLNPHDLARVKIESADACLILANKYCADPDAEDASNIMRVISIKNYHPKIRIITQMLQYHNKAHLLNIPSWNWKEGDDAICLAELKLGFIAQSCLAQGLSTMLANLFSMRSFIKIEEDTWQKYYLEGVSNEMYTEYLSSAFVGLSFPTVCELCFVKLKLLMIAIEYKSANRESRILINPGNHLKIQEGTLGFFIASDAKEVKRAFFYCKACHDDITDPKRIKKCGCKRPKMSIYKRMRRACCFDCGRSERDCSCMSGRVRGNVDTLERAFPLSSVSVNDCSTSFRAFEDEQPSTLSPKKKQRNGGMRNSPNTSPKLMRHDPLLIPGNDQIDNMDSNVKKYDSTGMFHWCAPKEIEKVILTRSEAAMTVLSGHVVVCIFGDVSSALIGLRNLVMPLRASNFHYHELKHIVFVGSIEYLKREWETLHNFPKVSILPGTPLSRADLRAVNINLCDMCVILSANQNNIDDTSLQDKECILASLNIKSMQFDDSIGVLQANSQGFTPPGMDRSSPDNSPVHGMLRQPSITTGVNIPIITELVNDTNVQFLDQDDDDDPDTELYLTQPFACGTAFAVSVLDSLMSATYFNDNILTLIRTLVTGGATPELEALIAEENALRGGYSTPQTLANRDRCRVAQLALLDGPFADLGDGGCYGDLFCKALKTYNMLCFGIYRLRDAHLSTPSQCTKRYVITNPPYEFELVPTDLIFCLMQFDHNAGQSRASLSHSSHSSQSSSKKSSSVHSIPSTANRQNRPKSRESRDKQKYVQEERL
T1 sequence (Q16558 whole entry partner): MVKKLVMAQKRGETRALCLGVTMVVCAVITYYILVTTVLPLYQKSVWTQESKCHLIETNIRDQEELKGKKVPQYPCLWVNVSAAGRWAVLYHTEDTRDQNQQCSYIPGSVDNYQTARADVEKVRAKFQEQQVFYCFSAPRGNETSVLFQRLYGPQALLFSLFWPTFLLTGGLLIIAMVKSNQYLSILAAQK
As to the kind of experiment: BK current in CHO cells expressing human BKαβ1 (PatchXpress whole-cell patch clamp), EC100. In kind it is cell-based. The conditions noted are these: drug concentration causing 100% increase of BK current. As for the experimental part: Methods for Testing Compounds on Human BKαβ1 Channels Expressed Cho Cells
CHO cells expressing human BKαβ1 were cultured in T75 or 6 well cell culture cluster. Medium: DMEM/F12+10% FBS+0.5 mg/mL G418/genetecin+0.1 mg/mL Hygromycin. Split cells every 3-4 days at 80-90% confluence. Use cells for experiments 60-72 hrs after re-passage and at ˜90% confluence.
Trypsin solution (0.05% Trypsin+0.1% EDTA), Ca^2+ free PBS and culture medium were warmed to 37° C. Inspect the T75 flask for cell confluence. Remove culture medium and add warm Ca^2+ free PBS to wash cells. Remove Ca^2+ free PBS and add warm Trypsin solution. Put the T75 flask back to 37° C. incubator for about 4.5 minutes. Stop Trypsin activity by adding culture medium. Spin the cells down. Suspend cells in 120-160 μL external solution for BK current recording and use the cells as soon as possible.
PatchXpress Sealchip 16 electrodes (AVIVA Biosciences) and PatchXpress 7000A (Axon Instruments, Inc) were used for BK current recording. Flat bottom 1.5 mL glass vial (HiPep Laboratories) were used for containing external solutions (±compounds). The holes in the sealchip (equivalent to patch electrode) had resistance about 1.5 MΩ. Cell membrane capacitance was compensated and access resistance was also compensated by 40%. Voltage-clamp protocol: Holding voltage=0 mV. Record BK current during 200-ms steps between +80 to +120 mV in 10 mV increments and 2 sec inter-pulse interval. On-line digital leak subtraction was performed by a P/−4 procedure. After whole-cell configuration was established, 2 minute was used to optimize access resistance. Then the chamber was washed with control bath solution for 1 minute to remove excessive cells. Control bath solution was added with robotic pipette and control BK current was recorded after 1 minute equilibrium time. For each drug concentration, 45 μL drug solution was added three times with “suction before adding” mode which left old solution. For each drug addition, 1 minute equilibrium time was given. BK current was measured at each drug concentrations (usually within 3.5 minutes after first drug addition). Calculate % change of BK current at the voltage step when the control BK current first exceeding 200 pA. If the control BK current was less than 200 pA at 120 mV, the cell was not used. % changes were calculated as 100*(Id−Ic)/Ic, where Id was the current amplitude in the presence of drug and Ic was the control current amplitude.
EC100 was defined as the drug concentration causing 100% increase of BK current calculated by the method described above. EC100 was determined by the data points just below and above 100%. % Increase of BK current was plotted against log [drug concentration]. A straight line connected two data points flanking 100%. From this straight line, the concentration corresponding to 100% increase of BK current was determined as EC100.
Compounds were dissolved in DMSO to make 10 mM stock solutions. Subsequent dilutions were made with external solution. The testing drug concentrations were 0.1, 0.3, 1, 3 and 10 μM depending on the potency of compounds. The highest DMSO concentration was 0.1%. External solution (in mM): 140 NaCl, 4 KCl, 1 MgCl2, 2 CaCl2, 10 Glucose, 10 HEPES; pH=7.4 with NaOH. Internal solution (in mM): 140 KCl, 5 EGTA, 1 MgCl2, 5 MgATP, 0.2 CaCl2, 5 HEPES; pH=7.2 with KOH.
On the technique in general: The patch-clamp technique gives a direct electrical read-out from membranes.
`O=C(O)C1(Nc2cc(-c3ccc(F)cc3)nc(-c3ccc(Cl)c(F)c3)n2)CC1` [Example 706]: the EC100 amounted to 0.16 µM.
The same measure for `CCOc1cc(F)ccc1-c1cc(OC2(C(=O)O)CC2)nc(-c2ccc(F)cc2)n1` [Example 709]: 0.12 µM; for `CC(C)Oc1cc(F)ccc1-c1cc(OC2(C(=O)O)CC2)nc(-c2ccc(F)cc2)n1` [Example 710]: 0.14 µM.
The same measure for `O=C(O)C1(Oc2cc(-c3ccc(C(F)(F)F)nc3)nc(-c3ccc(Cl)c(F)c3)n2)CC1` [Example 888]: 0.48 µM.
The figure for `CCc1ccc(F)cc1-c1cc(OC2(C(=O)O)CC2)nc(-c2ccc(F)cc2)n1` [Example 892] is 0.55 µM; for `CCOc1ccc(-c2cc(OC3(C(=O)O)CC3)nc(-c3ccc(F)cc3)n2)c(C)c1` [Example 897] it is 0.62 µM; for `COc1ccc(Cl)c(-c2cc(OC3(C(=O)O)CC3)nc(-c3ccc(F)cc3)n2)c1` [Example 900] it is 0.36 µM.
For the compound `Cc1cc(C(F)(F)F)ccc1-c1cc(OC2(C(=O)O)CC2)nc(-c2ccc(F)cc2)n1` [Example 905], the EC100 was 0.14 µM.
The same measure for `Cc1ccc(C(F)(F)F)cc1-c1cc(OC2(C(=O)O)CC2)nc(-c2ccc(F)cc2)n1` [Example 906]: 0.15 µM; for `N#Cc1cc(Cl)ccc1-c1cc(OC2(C(=O)O)CC2)nc(-c2ccc(Cl)cc2)n1` [Example 918]: 0.2 µM.
The same measure for `COCc1cc(Cl)ccc1-c1cc(OC2(C(=O)O)CC2)nc(-c2ccc(Cl)cc2)n1` [Example 921]: 0.1 µM.
The figure for `CCOc1cc(F)cc(-c2nc(-c3ccc(F)cc3)nc(OC3(C(=O)[O-])CC3)c2C)c1.[Na+]` [Example 978] is 0.12 µM; for `COc1ccc(-c2nc(-c3ccc(F)cc3)nc(OC3(C(=O)[O-])CC3)c2C)cc1Cl.[Na+]` [Example 982] it is 0.1 µM; for `COc1cc(-c2nc(-c3ccc(F)cc3)nc(OC3(C(=O)[O-])CC3)c2C)ccc1Cl.[Na+]` [Example 993] it is 0.13 µM.
On to `COc1cc(-c2nc(-c3ccc(F)cc3)nc(OC3(C(=O)[O-])CC3)c2C)ccc1F.[Na+]` [Example 996], for which the EC100 stood at 0.58 µM.
The figure for `Cc1cc(-c2nc(-c3ccc(F)cc3)nc(OC3(C(=O)[O-])CC3)c2C)ccc1F.[Na+]` [Example 999] is 0.14 µM; for `Cc1cc(F)cc(-c2nc(-c3ccc(F)cc3)nc(OC3(C(=O)[O-])CC3)c2C)c1.[Na+]` [Example 1000] it is 0.14 µM; for `Cc1c(OC2(C(=O)[O-])CC2)nc(-c2ccc(F)cc2)nc1-c1ccc(Cl)s1.[Na+]` [Example 1007] it is 0.1 µM.
The compound `Cc1c(OC2(C(=O)O)CC2)nc(-c2ccc(Cl)cc2)nc1-c1ccc(F)cc1` [Example 1015] showed an EC100 of 0.34 µM.
Consider `COc1ccc(-c2nc(-c3ccc(Cl)cc3)nc(OC3(C(=O)O)CC3)c2C)cc1` [Example 1016], for which the EC100 worked out at 0.5 µM.
The same measure for `CCOCc1ccc(-c2cc(OC3(C(=O)O)CC3)nc(-c3ccc(Cl)cc3)n2)c(C)c1` [Example 1034]: 0.17 µM.
The same measure for `Cc1cc(F)ccc1-c1cc(OC2(C(=O)O)CC2)nc(-c2ccc(F)cc2)c1` [Example 1087]: 0.36 µM.
In turn, `Cc1cc(Cl)ccc1-c1nc(OC2(C(=O)[O-])CC2)nc(-c2ccc(Cl)cc2)n1.[Na+]` [Example 1088] came in with an EC100 of 0.14 µM.
On to `Cc1cc(C(F)(F)F)ccc1-c1nc(OC2(C(=O)O)CC2)nc(-c2ccc(Cl)cc2)n1` [Example 1092], for which the EC100 worked out at 0.02 µM.
The same measure for `Cc1ccc(C(F)(F)F)cc1-c1nc(OC2(C(=O)[O-])CC2)nc(-c2ccc(Cl)cc2)n1.[Na+]` [Example 1093]: 0.04 µM; for `Cc1cc(OC(F)(F)F)ccc1-c1nc(OC2(C(=O)[O-])CC2)nc(-c2ccc(Cl)cc2)n1.[Na+]` [Example 1094]: 0.03 µM.
The same measure for `O=C([O-])C1(Oc2cc(N3CCc4ccc(F)cc4C3)nc(-c3ccc(Cl)cc3)n2)CC1.[Na+]` [Example 1095]: 0.3 µM; for `O=C([O-])C1(Oc2cc(N3CCc4cc(F)ccc4C3)nc(-c3ccc(Cl)cc3)n2)CC1.[Na+]` [Example 1096]: 0.11 µM; for `CN(Cc1cccc(F)c1)c1cc(OC2(C(=O)[O-])CC2)nc(-c2ccc(F)cc2)n1.[Na+]` [Example 1098]: 0.11 µM.
As for `COc1ccc(CN(C)c2cc(OC3(C(=O)O)CC3)nc(-c3ccc(F)cc3)n2)cc1` [Example 1100], the EC100 worked out at 0.38 µM.
`O=C([O-])C1(Oc2cc(N3CCc4cc(F)ccc43)nc(-c3ccc(F)cc3)n2)CC1.[Na+]` [Example 1108] displayed an EC100 of 0.36 µM.
As to `O=C([O-])C1(Oc2cc(N3CCc4ccc(F)cc4C3)nc(-c3ccc(F)cc3)n2)CC1.[Na+]` [Example 1109], the EC100 was 0.07 µM.
The same measure for `O=C([O-])C1(Oc2cc(N3CCc4ccc(Cl)cc4C3)nc(-c3ccc(F)cc3)n2)CC1.[Na+]` [Example 1111]: 0.12 µM.
The figure for `CCCOC1CCN(c2nc(-c3ccc(Cl)cc3)nc(OC3(C(=O)O)CC3)c2C)CC1` [Example 1114] is 0.41 µM; for `COCC1CCN(c2nc(-c3ccc(Cl)cc3)nc(OC3(C(=O)O)CC3)c2C)CC1` [Example 1115] it is 1.74 µM.
Take `CCOCC1CCN(c2nc(-c3ccc(Cl)cc3)nc(OC3(C(=O)O)CC3)c2C)CC1` [Example 1116]: the EC100 worked out at 1.31 µM.
The same measure for `Cc1c(OC2(C(=O)O)CC2)nc(-c2ccc(Cl)cc2)nc1N1CCC(OCC2CC2)CC1` [Example 1118]: 0.42 µM; for `CCCCOC1CCN(c2nc(-c3ccc(Cl)cc3)nc(OC3(C(=O)[O-])CC3)c2C)CC1.[Na+]` [Example 1119]: 0.73 µM; for `CCOCC1CCN(c2nc(-c3ccc(F)cc3)nc(OC3(C(=O)O)CC3)c2C)CC1` [Example 1122]: 0.9 µM.
`COCCC1CCN(c2nc(-c3ccc(F)cc3)nc(OC3(C(=O)O)CC3)c2C)CC1` [Example 1123] gave an EC100 of 0.95 µM.
Take `CCCCOC1CCN(c2nc(-c3ccc(F)cc3)nc(OC3(C(=O)[O-])CC3)c2C)CC1.[Na+]` [Example 1125]: the EC100 was found to be 0.5 µM.
The figure for `COCCCC1CCN(c2nc(-c3ccc(F)cc3)nc(OC3(C(=O)[O-])CC3)c2C)CC1.[Na+]` [Example 1126] is 0.77 µM; for `CCCOC1CCN(c2nc(-c3ccc(Cl)cc3)nc(OC3(C(=O)[O-])CC3)c2F)CC1.[Na+]` [Example 1129] it is 0.61 µM.
The same measure for `CCOCC1CCN(c2nc(-c3ccc(Cl)cc3)nc(OC3(C(=O)[O-])CC3)c2F)CC1.[Na+]` [Example 1131]: 0.23 µM; for `COCCC1CCN(c2nc(-c3ccc(Cl)cc3)nc(OC3(C(=O)[O-])CC3)c2F)CC1.[Na+]` [Example 1132]: 0.41 µM.
For `CCCOCC1CCN(c2nc(-c3ccc(Cl)cc3)nc(OC3(C(=O)[O-])CC3)c2F)CC1.[Na+]` [Example 1133], the EC100 came out at 1.29 µM.
The same measure for `CCCOC1CCN(c2nc(OC3(C(=O)O)CC3)cc(-c3ccc(C)c(Cl)c3)n2)CC1` [Example 1148]: 0.13 µM.
